In US12071408B2, “Multi-targeted tyrosine kinase inhibitors effective in antitumor uses” (Shanghai AB PharmaTech Ltd., priority 2021, dated 2024):
Where two headings read alike, the source gives them in different places.

How the values were obtained:
[1] = tested on: hepatocellular carcinoma cell line (Hep3B 2.1-7); test: Tumor cell proliferation inhibition (CTG, 72 h); assay type: cell-based; conditions: Hep3B 2.1-7 cells, class, read-out: Hep3B 2.1-7 range of activity (IC50)
[2] = tested on: bladder cancer cell line (RT112/84); test: Tumor cell proliferation inhibition (CTG, 72 h); assay type: cell-based; conditions: RT112/84 cells, class, read-out: RT112/84 range of activity (IC50)
[3] = tested on: thyroid cancer cell line (TT); test: Tumor cell proliferation inhibition (CTG, 72 h); assay type: cell-based; conditions: TT cells, class, read-out: TT range of activity (IC50)
[4] = tested on: cervical cancer cell line (Hela); test: Tumor cell proliferation inhibition (CTG, 72 h); assay type: cell-based; conditions: Hela cells, class, read-out: Hela activity effect range (IC50)
[5] = tested on: leukemia cell line (K562); test: Tumor cell proliferation inhibition (CTG, 72 h); assay type: cell-based; conditions: K562 cells, class, read-out: K562 activity effect range (IC50)
[6] = target: VEGFR-2 (KDR) (Homo sapiens (Human), UniProt P35968); test: Kinase inhibition, Mobility-Shift Assay; assay type: biochemical; conditions: class; read-out: KDR activity effect range (IC50)
Sequence of VEGFR-2 (KDR) (P35968 20-1356): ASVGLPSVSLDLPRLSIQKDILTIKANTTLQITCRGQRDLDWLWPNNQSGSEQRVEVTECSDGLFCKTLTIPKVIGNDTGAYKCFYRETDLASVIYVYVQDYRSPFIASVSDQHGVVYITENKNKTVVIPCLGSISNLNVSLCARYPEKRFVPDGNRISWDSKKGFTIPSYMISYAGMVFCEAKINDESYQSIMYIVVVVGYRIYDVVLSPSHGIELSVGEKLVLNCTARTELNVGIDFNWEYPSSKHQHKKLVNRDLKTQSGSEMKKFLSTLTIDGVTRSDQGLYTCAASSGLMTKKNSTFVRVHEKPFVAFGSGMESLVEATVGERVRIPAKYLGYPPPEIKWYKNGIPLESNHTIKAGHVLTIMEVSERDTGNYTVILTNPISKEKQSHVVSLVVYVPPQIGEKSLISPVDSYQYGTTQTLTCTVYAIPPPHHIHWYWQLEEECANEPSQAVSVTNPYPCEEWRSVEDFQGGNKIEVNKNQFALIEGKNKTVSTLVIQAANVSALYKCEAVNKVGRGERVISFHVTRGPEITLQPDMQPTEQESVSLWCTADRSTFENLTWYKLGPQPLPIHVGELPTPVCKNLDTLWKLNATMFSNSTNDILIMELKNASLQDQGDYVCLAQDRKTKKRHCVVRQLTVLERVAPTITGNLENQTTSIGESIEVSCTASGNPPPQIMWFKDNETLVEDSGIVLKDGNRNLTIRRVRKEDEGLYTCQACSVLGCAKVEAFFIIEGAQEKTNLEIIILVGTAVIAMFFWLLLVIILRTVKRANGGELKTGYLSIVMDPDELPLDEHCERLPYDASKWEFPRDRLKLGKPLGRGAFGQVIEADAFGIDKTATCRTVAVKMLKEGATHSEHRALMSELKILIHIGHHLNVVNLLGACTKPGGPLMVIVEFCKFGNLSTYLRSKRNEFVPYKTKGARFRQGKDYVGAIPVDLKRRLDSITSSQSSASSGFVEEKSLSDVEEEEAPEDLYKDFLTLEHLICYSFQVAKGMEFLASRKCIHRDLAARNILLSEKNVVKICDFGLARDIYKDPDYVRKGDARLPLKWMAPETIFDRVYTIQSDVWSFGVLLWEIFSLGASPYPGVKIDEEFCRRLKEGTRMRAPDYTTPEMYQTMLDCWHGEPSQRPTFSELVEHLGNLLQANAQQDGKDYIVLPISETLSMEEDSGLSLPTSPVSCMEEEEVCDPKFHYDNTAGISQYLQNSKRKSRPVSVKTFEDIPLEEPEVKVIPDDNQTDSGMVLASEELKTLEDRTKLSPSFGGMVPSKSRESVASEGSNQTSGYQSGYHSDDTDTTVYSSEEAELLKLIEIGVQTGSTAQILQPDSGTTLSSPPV

[7] = target: FGFR2 (Homo sapiens (Human), UniProt P21802); test: Kinase inhibition, Mobility-Shift Assay; assay type: biochemical; conditions: class; read-out: FGFR2 range of activity effects (IC50)
Sequence of FGFR2 (P21802 22-821): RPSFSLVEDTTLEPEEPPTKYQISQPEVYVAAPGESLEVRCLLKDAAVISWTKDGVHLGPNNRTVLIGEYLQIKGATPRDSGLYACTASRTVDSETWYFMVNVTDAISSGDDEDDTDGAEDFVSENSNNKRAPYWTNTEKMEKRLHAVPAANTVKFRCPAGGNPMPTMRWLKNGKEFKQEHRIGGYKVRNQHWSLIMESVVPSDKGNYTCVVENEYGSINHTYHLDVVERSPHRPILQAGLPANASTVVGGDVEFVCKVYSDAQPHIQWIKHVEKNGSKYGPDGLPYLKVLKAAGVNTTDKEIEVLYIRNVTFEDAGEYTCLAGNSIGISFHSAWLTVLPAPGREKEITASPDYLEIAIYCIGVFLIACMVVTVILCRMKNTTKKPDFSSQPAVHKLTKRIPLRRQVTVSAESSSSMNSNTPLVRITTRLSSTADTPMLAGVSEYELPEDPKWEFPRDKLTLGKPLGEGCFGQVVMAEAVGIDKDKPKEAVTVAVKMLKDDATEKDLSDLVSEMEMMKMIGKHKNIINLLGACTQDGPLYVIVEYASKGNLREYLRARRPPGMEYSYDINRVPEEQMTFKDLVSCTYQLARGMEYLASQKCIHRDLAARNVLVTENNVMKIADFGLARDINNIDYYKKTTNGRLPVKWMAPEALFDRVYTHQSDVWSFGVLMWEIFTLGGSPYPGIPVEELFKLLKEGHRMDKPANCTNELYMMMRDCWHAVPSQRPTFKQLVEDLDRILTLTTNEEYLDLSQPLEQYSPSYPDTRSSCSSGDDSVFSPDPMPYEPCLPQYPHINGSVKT

[8] = target: FGFR4 (Homo sapiens (Human), UniProt P22455); test: Kinase inhibition, Mobility-Shift Assay; assay type: biochemical; conditions: class; read-out: FGFR4 range of activity effects (IC50)
Sequence of FGFR4 (P22455 22-802): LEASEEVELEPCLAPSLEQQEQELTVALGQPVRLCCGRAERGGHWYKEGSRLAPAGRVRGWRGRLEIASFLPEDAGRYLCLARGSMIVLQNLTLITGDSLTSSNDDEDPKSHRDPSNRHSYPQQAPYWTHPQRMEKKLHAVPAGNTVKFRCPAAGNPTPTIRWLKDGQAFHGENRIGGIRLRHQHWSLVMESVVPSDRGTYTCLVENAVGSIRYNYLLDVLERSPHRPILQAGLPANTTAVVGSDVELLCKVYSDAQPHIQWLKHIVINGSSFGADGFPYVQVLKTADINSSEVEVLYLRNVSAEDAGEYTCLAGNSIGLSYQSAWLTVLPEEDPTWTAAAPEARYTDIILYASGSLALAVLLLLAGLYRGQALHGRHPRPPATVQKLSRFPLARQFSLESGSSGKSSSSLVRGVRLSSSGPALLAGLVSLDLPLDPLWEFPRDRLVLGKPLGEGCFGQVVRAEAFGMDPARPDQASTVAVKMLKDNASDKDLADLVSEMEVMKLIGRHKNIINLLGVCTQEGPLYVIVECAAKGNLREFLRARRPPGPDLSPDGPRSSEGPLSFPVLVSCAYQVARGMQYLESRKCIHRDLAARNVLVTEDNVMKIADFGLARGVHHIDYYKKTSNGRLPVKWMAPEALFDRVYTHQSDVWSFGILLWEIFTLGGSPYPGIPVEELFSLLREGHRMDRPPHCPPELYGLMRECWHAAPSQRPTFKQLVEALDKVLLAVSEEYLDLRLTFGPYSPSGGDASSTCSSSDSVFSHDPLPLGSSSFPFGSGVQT

[9] = target: EGFR (Homo sapiens (Human), UniProt P00533); test: Kinase inhibition, Mobility-Shift Assay; assay type: biochemical; conditions: class; read-out: EGFR range of activity (IC50)
[10] = target: C-MET (Homo sapiens (Human), UniProt P08581); test: Kinase inhibition, Mobility-Shift Assay; assay type: biochemical; conditions: class; read-out: C-MET range of activity (IC50)
Sequence of C-MET (P08581 25-1390): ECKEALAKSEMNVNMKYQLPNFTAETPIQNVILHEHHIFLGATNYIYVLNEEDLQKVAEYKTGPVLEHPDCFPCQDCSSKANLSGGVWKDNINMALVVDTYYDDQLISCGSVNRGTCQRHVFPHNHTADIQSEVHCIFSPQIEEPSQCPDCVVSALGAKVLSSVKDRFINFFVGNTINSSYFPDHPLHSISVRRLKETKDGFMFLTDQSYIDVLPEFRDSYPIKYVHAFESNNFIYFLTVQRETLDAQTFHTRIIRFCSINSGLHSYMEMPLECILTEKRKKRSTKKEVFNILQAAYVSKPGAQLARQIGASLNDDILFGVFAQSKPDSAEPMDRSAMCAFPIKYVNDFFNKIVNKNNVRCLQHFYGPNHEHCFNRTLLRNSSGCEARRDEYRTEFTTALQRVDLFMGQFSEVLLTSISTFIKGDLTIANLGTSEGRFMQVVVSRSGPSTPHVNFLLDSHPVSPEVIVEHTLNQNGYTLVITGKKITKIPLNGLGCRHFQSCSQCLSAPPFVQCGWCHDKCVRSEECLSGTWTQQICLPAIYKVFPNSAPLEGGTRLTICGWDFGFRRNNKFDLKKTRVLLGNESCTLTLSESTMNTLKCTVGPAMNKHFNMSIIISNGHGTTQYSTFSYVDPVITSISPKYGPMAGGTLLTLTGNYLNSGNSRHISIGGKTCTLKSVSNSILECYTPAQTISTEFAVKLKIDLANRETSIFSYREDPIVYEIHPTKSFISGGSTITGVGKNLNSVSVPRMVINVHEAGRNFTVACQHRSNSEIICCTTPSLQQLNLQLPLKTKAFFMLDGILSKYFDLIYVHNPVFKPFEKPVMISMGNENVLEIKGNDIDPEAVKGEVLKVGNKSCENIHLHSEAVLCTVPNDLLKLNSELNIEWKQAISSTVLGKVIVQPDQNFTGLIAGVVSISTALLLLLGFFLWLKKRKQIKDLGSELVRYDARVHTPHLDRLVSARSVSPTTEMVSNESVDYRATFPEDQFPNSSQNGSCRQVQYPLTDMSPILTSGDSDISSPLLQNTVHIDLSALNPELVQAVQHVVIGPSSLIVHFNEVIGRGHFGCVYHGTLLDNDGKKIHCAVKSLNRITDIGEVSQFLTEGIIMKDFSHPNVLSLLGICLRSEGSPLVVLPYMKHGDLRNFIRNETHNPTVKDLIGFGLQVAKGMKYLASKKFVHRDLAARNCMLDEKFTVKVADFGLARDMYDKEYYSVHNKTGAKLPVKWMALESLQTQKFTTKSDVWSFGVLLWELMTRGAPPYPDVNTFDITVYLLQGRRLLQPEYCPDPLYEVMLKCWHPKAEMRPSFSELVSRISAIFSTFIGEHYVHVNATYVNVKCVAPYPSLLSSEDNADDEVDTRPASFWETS

SMILES | IC50 ([1]; Homo sapiens) [nM] | IC50 ([2]; Homo sapiens) [nM] | IC50 ([3]; Homo sapiens) [nM] | IC50 ([4]; Homo sapiens) [nM] | IC50 ([5]; Homo sapiens) [nM] | IC50 [6] [nM] | IC50 [7] [nM] | IC50 [8] [nM] | IC50 [9] [nM] | IC50 [10] [nM] | IC50 [1] [nM] | IC50 [2] [nM] | IC50 [3] [nM] | IC50 [4] [nM] | IC50 [5] [nM]
COc1cc2nccc(Oc3c(F)cc(NC(=O)NC(CO)CO)c(Cl)c3F)c2cc1C(N)=O [III-13] | > 5000 | > 1000 | > 10000 | > 10000 | > 10000 | > 10 | > 100 | > 100 | > 100 | > 100 | – | – | – | – | –
COc1cc2nccc(Oc3c(F)cc(NC(=O)NC[C@H](O)CO)c(Cl)c3F)c2cc1C(N)=O [III-14] | > 5000 | > 1000 | > 10000 | > 10000 | > 10000 | > 10 | > 100 | > 100 | > 100 | > 100 | – | – | – | – | –
COc1cc2nccc(Oc3c(F)cc(NC(=O)NC[C@@H](O)CO)c(Cl)c3F)c2cc1C(N)=O [III-15] | > 5000 | > 1000 | > 10000 | > 10000 | > 10000 | > 10 | > 100 | > 100 | > 100 | > 100 | – | – | – | – | –
COc1cc2nccc(Oc3c(F)cc(NC(=O)NC4CC4)c(F)c3F)c2cc1C(N)=O [III-16] | 2500 to 5000 | 200 to 1000 | > 10000 | > 10000 | 5000 to 10000 | 2 to 10 | 30 to 100 | > 100 | > 100 | 60 to 100 | – | – | – | – | –
COc1cc2nccc(Oc3c(F)cc(NC(=O)NC4CC4)c(Br)c3F)c2cc1C(N)=O [III-17] | > 5000 | > 1000 | > 10000 | > 10000 | > 10000 | > 10 | > 100 | > 100 | > 100 | > 100 | – | – | – | – | –
COc1cc2nccc(Oc3c(Br)cc(NC(=O)NC4CC4)c(Cl)c3F)c2cc1C(N)=O [III-18] | > 5000 | > 1000 | > 10000 | > 10000 | > 10000 | > 10 | > 100 | > 100 | > 100 | > 100 | – | – | – | – | –
COc1cc2nccc(Oc3c(Cl)cc(NC(=O)NC4CC4)c(Cl)c3F)c2cc1C(N)=O [III-19] | > 5000 | > 1000 | > 10000 | > 10000 | > 10000 | > 10 | > 100 | > 100 | > 100 | > 100 | – | – | – | – | –
COc1cc2nccc(Oc3c(Cl)cc(NC(=O)NC4CC4)c(Br)c3F)c2cc1C(N)=O [III-20] | > 5000 | > 1000 | > 10000 | > 10000 | > 10000 | > 10 | > 100 | > 100 | > 100 | > 100 | – | – | – | – | –
COc1cc2nccc(Oc3c(F)cc(NC(=O)NC4(C)CC4)c(F)c3F)c2cc1C(N)=O [III-21] | > 5000 | > 1000 | > 10000 | > 10000 | > 10000 | > 10 | > 100 | > 100 | > 100 | > 100 | – | – | – | – | –
COc1cc2nccc(Oc3c(F)cc(NC(=O)NC4(C)CC4)c(Cl)c3F)c2cc1C(N)=O [III-22] | > 5000 | > 1000 | > 10000 | > 10000 | > 10000 | > 10 | > 100 | > 100 | > 100 | > 100 | – | – | – | – | –
COc1cc2nccc(Oc3c(F)cc(NC(=O)NC4CC4(F)F)c(F)c3F)c2cc1C(N)=O (stereo not shown) [III-23] | > 5000 | > 1000 | > 10000 | > 10000 | > 10000 | > 10 | > 100 | > 100 | > 100 | > 100 | – | – | – | – | –
COc1cc2nccc(Oc3c(F)cc(NC(=O)NC4CC4(F)F)c(Cl)c3F)c2cc1C(N)=O (stereo not shown) [III-24] | > 5000 | > 1000 | > 10000 | > 10000 | > 10000 | > 10 | > 100 | > 100 | > 100 | > 100 | – | – | – | – | –
COc1cc2nccc(Oc3c(F)cc(NC(=O)NCC4CC4)c(Cl)c3F)c2cc1C(N)=O [III-25] | > 5000 | > 1000 | > 10000 | > 10000 | > 10000 | > 10 | > 100 | > 100 | > 100 | > 100 | – | – | – | – | –
COc1cc2nccc(Oc3c(F)cc(NC(=O)NC4CCC4)c(Cl)c3F)c2cc1C(N)=O [III-26] | > 5000 | > 1000 | > 10000 | > 10000 | > 10000 | > 10 | > 100 | > 100 | > 100 | > 100 | – | – | – | – | –
COc1cc2nccc(Oc3c(F)cc(NC(=O)NC4COC4)c(Cl)c3F)c2cc1C(N)=O [III-27] | > 5000 | > 1000 | > 10000 | > 10000 | > 10000 | > 10 | > 100 | > 100 | > 100 | > 100 | – | – | – | – | –
COc1cc2nccc(Oc3c(F)cc(NC(=O)NC4CCOCC4)c(Cl)c3F)c2cc1C(N)=O [III-28] | > 5000 | > 1000 | > 10000 | > 10000 | > 10000 | > 10 | > 100 | > 100 | > 100 | > 100 | – | – | – | – | –
COc1cc2nccc(Oc3c(F)cc(NC(=O)NC4CC(O)C4)c(Cl)c3F)c2cc1C(N)=O (stereo not shown) [III-29] | > 5000 | > 1000 | > 10000 | > 10000 | > 10000 | > 10 | > 100 | > 100 | > 100 | > 100 | – | – | – | – | –
COc1cc2nccc(Oc3c(F)cc(NC(=O)NC4CC(O)C4)c(Cl)c3F)c2cc1C(N)=O (stereo not shown) [III-30] | – | – | – | – | – | > 10 | > 100 | > 100 | > 100 | > 100 | > 5000 | > 1000 | > 10000 | > 10000 | > 10000
COc1cc2nccc(Oc3c(F)cc(NC(=O)N4CC[C@H](O)C4)c(Cl)c3F)c2cc1C(N)=O [III-31] | > 5000 | > 1000 | > 10000 | > 10000 | > 10000 | > 10 | > 100 | > 100 | > 100 | > 100 | – | – | – | – | –
COc1cc2nccc(Oc3c(F)cc(NC(=O)N4CC[C@@H](O)C4)c(Cl)c3F)c2cc1C(N)=O [III-32] | > 5000 | > 1000 | > 10000 | > 10000 | > 10000 | > 10 | > 100 | > 100 | > 100 | > 100 | – | – | – | – | –
COc1cc2nccc(Oc3c(F)cc(NC(=O)N4CCN(C)CC4)c(Cl)c3F)c2cc1C(N)=O [III-33] | > 5000 | > 1000 | > 10000 | > 10000 | > 10000 | > 10 | > 100 | > 100 | > 100 | > 100 | – | – | – | – | –
COc1cc2nccc(Oc3c(F)cc(NC(=O)NC(C)C)c(Cl)c3F)c2cc1C(N)=O [III-34] | > 5000 | > 1000 | > 10000 | > 10000 | > 10000 | > 10 | > 100 | > 100 | > 100 | > 100 | – | – | – | – | –
COc1cc2nccc(Oc3c(Cl)cc(NC(=O)NC4CC4)c(F)c3F)c2cc1C(N)=O [III-35] | > 5000 | > 1000 | > 10000 | > 10000 | > 10000 | > 10 | > 100 | > 100 | > 100 | > 100 | – | – | – | – | –
COc1cc2nccc(Oc3c(F)c(F)c(NC(=O)NC4CC4)c(F)c3F)c2cc1C(N)=O [III-36] | > 5000 | > 1000 | > 10000 | > 10000 | > 10000 | > 10 | > 100 | > 100 | > 100 | > 100 | – | – | – | – | –
C=CC1CC1(NC(=O)Nc1cc(F)c(Oc2ccnc3cc(OC)c(C(N)=O)cc23)c(F)c1Cl)C(=O)NC1CC1 (stereo not shown) [III-37] | > 5000 | > 1000 | > 10000 | > 10000 | > 10000 | > 10 | > 100 | > 100 | > 100 | > 100 | – | – | – | – | –
